Laboratory results reported in patent US20250339461A1 (priority 2024, published 2025).
Entries after “also recorded” stand apart in the source; their conditions may differ.

Legend:
migraine headache = conditions: human, in vivo
[1] = human, in vivo
nausea = conditions: human, in vivo
neuropathic facial pain = tested on: neuropathic facial pain; set-up: species or system human; conditions: in vivo

Molecule: C[C@@H]1[C@H](c2ccccc2)C[C@H](NC(=O)c2cnc3c(c2)C[C@@]2(C3)C(=O)Nc3ncccc32)C(=O)N1CC(F)(F)F [Ubrelvy]
- benefit for rescue (migraine headache): not helpful

Molecule: CN(C)CCC=C1c2ccccc2CCc2ccccc21 [amitriptyline]
- benefit as prophylactic agent for migraines (migraine headache): without benefit

Molecule: NCC(CC(=O)O)c1ccc(Cl)cc1 (centres unmarked) [baclofen]
- benefit as prophylactic agent for migraines (migraine headache): without benefit
- benefit for migraine prophylaxis, history at first visit (migraine headache): no benefit
- benefit from previous treatment (migraine headache): no benefit

Molecule: CCCCN1CCCCC1C(=O)Nc1c(C)cccc1C (centres unmarked) [bupivacaine]
- pain after local anesthetic injection along superior nuchal line (migraine headache): substantially improved for two days

Molecule: Oc1ccc2c(c1)[C@@]13CCCC[C@@]1(O)[C@@H](C2)N(CC1CCC1)CC3 [butorphanol]
- benefit for rescue (migraine headache): without benefit

Molecule: NC(=O)N1c2ccccc2C=Cc2ccccc21 [carbamazepine]
- benefit as prophylactic agent for migraines (migraine headache): without benefit

Molecule: COC1=C(OC)C(=O)C(C/C=C(\C)CC/C=C(\C)CC/C=C(\C)CC/C=C(\C)CC/C=C(\C)CC/C=C(\C)CC/C=C(\C)CC/C=C(\C)CC/C=C(\C)CCC=C(C)C)=C(C)C1=O [coenzyme Q10]
- benefit as prophylactic agent for migraines (migraine headache): without benefit
- benefit for prophylaxis (migraine headache): no benefit
- effect on frequency of headaches after 4-6 weeks (migraine headache): did not affect the frequency

Molecule: O=C(O)Cc1ccccc1Nc1c(Cl)cccc1Cl [diclofenac]
- benefit for rescue (migraine headache): without benefit

Molecule: CN1CCC[C@@H]1Cc1c[nH]c2ccc(CCS(=O)(=O)c3ccccc3)cc12 [eletriptan]
- benefit for rescue (migraine headache): consistently effective

Molecule: NCC1(CC(=O)O)CCCCC1 [gabapentin]
- benefit as prophylactic agent for migraines (migraine headache): without benefit
- benefit for migraine prophylaxis, history at first visit (migraine headache): no benefit
- benefit from previous treatment (migraine headache): no benefit

Molecule: CC(C)Cc1ccc(C(C)C(=O)O)cc1 (centres unmarked) [ibuprofen]
- benefit from previous treatment (migraine headache): no benefit

Molecule: CCCCc1nc(Cl)c(CO)n1Cc1ccc(-c2ccccc2-c2nn[nH]n2)cc1 [losartan]
- benefit for migraine prophylaxis, history at first visit (migraine headache): no benefit

Molecule: CCN(CC)CCNC(=O)c1cc(Cl)c(N)cc1OC [metoclopramide]
- tolerability [1]: intolerant

Molecule: Cc1nccn1CC1CCc2c(c3ccccc3n2C)C1=O (centres unmarked) [ondansetron]
- effect on nausea (nausea): at times helpful for nausea

Molecule: C[C@]12C=CC(=O)C=C1CC[C@@H]1[C@@H]2C(=O)C[C@@]2(C)[C@H]1CC[C@]2(O)C(=O)CO [prednisone]
- benefit as prophylactic agent for migraines (migraine headache): without benefit

Molecule: CC(C)C[C@H](CN)CC(=O)O [pregabalin]
- benefit as prophylactic agent for migraines (migraine headache): without benefit
- effect on comorbid neuropathic facial pain (neuropathic facial pain): treated effectively

Molecule: CC(C)NCC(O)COc1cccc2ccccc12 (centres unmarked) [propranolol]
- benefit as prophylactic agent for migraines (migraine headache): without benefit
- benefit from previous treatment (migraine headache): no benefit
- tolerability [1]: caused dizziness

Molecule: Cc1cc2nc3c(=O)[nH]c(=O)nc-3n(C[C@H](O)[C@H](O)[C@H](O)CO)c2cc1C [riboflavin]
- effect on frequency of headaches after 4-6 weeks (migraine headache): did not affect the frequency

Molecule: CN(C)CCc1c[nH]c2ccc(Cn3cncn3)cc12 [rizatriptan]
- benefit for rescue (migraine headache): no longer effective
- share of the time it worked for rescue (migraine headache): approximately 20 % of the time
- adverse effect when tried for rescue [1]: severe elevation in their blood pressure

Molecule: CNS(=O)(=O)Cc1ccc2[nH]cc(CCN(C)C)c2c1 [sumatriptan tablet, sumatriptan]
- benefit for rescue (migraine headache): not helpful; also recorded: partially helpful; also recorded: without benefit

Molecule: Clc1ccc2nsnc2c1NC1=NCCN1 [tizanidine]
- benefit as prophylactic agent for migraines (migraine headache): without benefit
- benefit for prophylaxis (migraine headache): partially helpful

Molecule: CC1(C)O[C@@H]2[C@@H](CO[C@@]3(COS(N)(=O)=O)OC(C)(C)O[C@@H]23)O1 [topiramate]
- benefit as prophylactic agent for migraines (migraine headache): without benefit
- benefit for migraine prophylaxis (migraine headache): helped some
- benefit for migraine prophylaxis, history at first visit (migraine headache): no benefit
- frequency of severe migraine headaches on treatment (migraine headache): 5 to 7 days a week
- tolerability [1]: could not tolerate the side effects

Molecule: COc1cccc(C2(O)CCCCC2CN(C)C)c1 (centres unmarked) [tramadol]
- benefit for rescue (migraine headache): partially helpful; also recorded: without benefit

Molecule: CCCC(CCC)C(=O)O [valproic acid]
- benefit as prophylactic agent for migraines (migraine headache): without benefit

Molecule: CN(C)CCc1c[nH]c2ccc(C[C@H]3COC(=O)N3)cc12 [zolmitriptan nasal spray, zolmitriptan]
- benefit for rescue (migraine headache): without benefit

Molecule: NS(=O)(=O)Cc1noc2ccccc12 [zonisamide]
- benefit as prophylactic agent for migraines (migraine headache): without benefit

B1: Emgality: prophylactic agent prescribed for chronic migraine (antibody, chains of the INN, looked up, V domains shown)
VH: QVQLVQSGAEVKKPGSSVKVSCKASGYTFGNYWMQWVRQAPGQGLEWMGAIYEGTGKTVYIQKFADRVTITADKSTSTAYMELSSLRSEDTAVYYCARLSDYVSGFGYWGQGTTVTVSS
VL: DIQMTQSPSSLSASVGDRVTITCRASKDISKYLNWYQQKPGKAPKLLIYYTSGYHSGVPSRFSGSGSGTDFTLTISSLQPEDFATYYCQQGDALPPTFGGGTKVEIK
- benefit as prophylactic agent for migraines (migraine headache): without benefit
- benefit for migraine prophylaxis (migraine headache): significantly improved
- benefit for migraine prophylaxis, history at first visit (migraine headache): had not noticed any obvious benefit
- benefit for migraine, subsequent treatment rounds (migraine headache): reduced the pain somewhat, but had not reduced the frequency or duration
- frequency of headaches with throbbing, light and sound sensitivity (migraine headache): once or twice per week
- migraine frequency on treatment (migraine headache): 2 to 3 days/week
- side effects [1]: caused unwanted side effects

B2: Ajovy: prophylactic agent tried for migraines (antibody, chains of the INN, looked up, V domains shown)
VH: EVQLVESGGGLVQPGGSLRLSCAASGFTFSNYWISWVRQAPGKGLEWVAEIRSESDASATHYAEAVKGRFTISRDNAKNSLYLQMNSLRAEDTAVYYCLAYFDYGLAIQNYWGQGTLVTVSS
VL: EIVLTQSPATLSLSPGERATLSCKASKRVTTYVSWYQQKPGQAPRLLIYGASNRYLGIPARFSGSGSGTDFTLTISSLEPEDFAVYYCSQSYNYPYTFGQGTKLEIK
- benefit as prophylactic agent for migraines (migraine headache): without benefit
